Literature values, collected in patent publication US7022677B1, “Amide derivatives as growth hormone secretagogues” (Kaken Pharmaceutical Co., Ltd., priority 1999, dated 2006).

Key:
[1] = human, in vivo
growth hormone release = details: control compound for pharmacophore development

Row | oral bioavailability [1] | Compound | growth hormone releasing activity (active/inactive) (growth hormone release)
1 | 0.3% | GHRP-6 | –
2 | – | CC(C)(N)CC(=O)N[C@H]1CCc2ccccc2N(Cc2ccc(-c3ccccc3-c3nn[nH]n3)cc2)C1=O [L-692,428] | inactive
